Here are results for 31 compounds from patent US20120129833A1, “CYCLIC KETOENOLS FOR THERAPY” (BAYER PHARMA AKTIENGESELLSCHAFT, priority 2010, published 2012).

Some results are limits rather than exact numbers.

For experiment [1], the target named is T1, recombinant human ACC1 (acetyl-CoA carboxylase 1) (Homo sapiens, UniProt Q13085).
T1 construct: NM_198834, amino acids 39—end; FLAG (C); made in house; host or cells: baculovirus-transfected insect cells (Hi5)
Kind of experiment: Human ACC1 enzyme assay (HTRF ADP detection).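 Further: ADP by-product quantified by competitive HTRF immunoassay with europium cryptate anti-ADP antibody and d2-labelled ADP, read after 1 h binding at 22 °C, enzyme near 2.5 ng/µl.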 It counts as biochemical. The note with it: 50 μM ATP, 20 μM acetyl-CoA, 15 min pre-incubation, 20 min at 22° C.; read-out: ACC 1 IC50. For orientation: TR-FRET usually uses a lanthanide donor and a delayed reading to cut background.
Experimental: The basic principle of the assay is the measurement of adenosine diphosphate (ADP), which is formed as a by-product, by means of an HTRF®-based competitive immunoassay (HTRF=Homogeneous Time Resolved Fluorescence).
(§1) The amount of complex of d2-labelled ADP and europium cryptate-labelled anti-ADP antibody was then determined by measuring the resonance energy transfer of europium cryptate to d2.

Experiment [2] concerns the target T2, ACC2 (acetyl-CoA carboxylase 2) (Homo sapiens, UniProt O00763).
T2 construct: catalogue no; 50201, amino acids 39—end, expressed in baculovirus-transfected Sf9 insect cells; His (C); purchased BPS Bioscience (San Diego, Calif.) 50201; host or cells: baculovirus-transfected Sf9 insect cells
As to the kind of experiment: Human ACC2 enzyme assay (HTRF ADP detection). It counts as biochemical. The following applies: 20 μM acetyl-CoA, 15 min pre-incubation, 20 min at 22° C.; read-out: ACC 2 IC50.
Experimental: The inhibitory activity of the substances of this invention with regard to acetyl-CoA carboxylase 2 (ACC2) was measured using the ACC2 assay described in the paragraphs below. The basic principle of the assay is the measurement of adenosine diphosphate (ADP), which is formed as a by-product, by means of an HTRF®-based competitive immunoassay (HTRF=Homogeneous Time Resolved Fluorescence).
as §1

T2 sequence (O00763 39-2458 limits assumed): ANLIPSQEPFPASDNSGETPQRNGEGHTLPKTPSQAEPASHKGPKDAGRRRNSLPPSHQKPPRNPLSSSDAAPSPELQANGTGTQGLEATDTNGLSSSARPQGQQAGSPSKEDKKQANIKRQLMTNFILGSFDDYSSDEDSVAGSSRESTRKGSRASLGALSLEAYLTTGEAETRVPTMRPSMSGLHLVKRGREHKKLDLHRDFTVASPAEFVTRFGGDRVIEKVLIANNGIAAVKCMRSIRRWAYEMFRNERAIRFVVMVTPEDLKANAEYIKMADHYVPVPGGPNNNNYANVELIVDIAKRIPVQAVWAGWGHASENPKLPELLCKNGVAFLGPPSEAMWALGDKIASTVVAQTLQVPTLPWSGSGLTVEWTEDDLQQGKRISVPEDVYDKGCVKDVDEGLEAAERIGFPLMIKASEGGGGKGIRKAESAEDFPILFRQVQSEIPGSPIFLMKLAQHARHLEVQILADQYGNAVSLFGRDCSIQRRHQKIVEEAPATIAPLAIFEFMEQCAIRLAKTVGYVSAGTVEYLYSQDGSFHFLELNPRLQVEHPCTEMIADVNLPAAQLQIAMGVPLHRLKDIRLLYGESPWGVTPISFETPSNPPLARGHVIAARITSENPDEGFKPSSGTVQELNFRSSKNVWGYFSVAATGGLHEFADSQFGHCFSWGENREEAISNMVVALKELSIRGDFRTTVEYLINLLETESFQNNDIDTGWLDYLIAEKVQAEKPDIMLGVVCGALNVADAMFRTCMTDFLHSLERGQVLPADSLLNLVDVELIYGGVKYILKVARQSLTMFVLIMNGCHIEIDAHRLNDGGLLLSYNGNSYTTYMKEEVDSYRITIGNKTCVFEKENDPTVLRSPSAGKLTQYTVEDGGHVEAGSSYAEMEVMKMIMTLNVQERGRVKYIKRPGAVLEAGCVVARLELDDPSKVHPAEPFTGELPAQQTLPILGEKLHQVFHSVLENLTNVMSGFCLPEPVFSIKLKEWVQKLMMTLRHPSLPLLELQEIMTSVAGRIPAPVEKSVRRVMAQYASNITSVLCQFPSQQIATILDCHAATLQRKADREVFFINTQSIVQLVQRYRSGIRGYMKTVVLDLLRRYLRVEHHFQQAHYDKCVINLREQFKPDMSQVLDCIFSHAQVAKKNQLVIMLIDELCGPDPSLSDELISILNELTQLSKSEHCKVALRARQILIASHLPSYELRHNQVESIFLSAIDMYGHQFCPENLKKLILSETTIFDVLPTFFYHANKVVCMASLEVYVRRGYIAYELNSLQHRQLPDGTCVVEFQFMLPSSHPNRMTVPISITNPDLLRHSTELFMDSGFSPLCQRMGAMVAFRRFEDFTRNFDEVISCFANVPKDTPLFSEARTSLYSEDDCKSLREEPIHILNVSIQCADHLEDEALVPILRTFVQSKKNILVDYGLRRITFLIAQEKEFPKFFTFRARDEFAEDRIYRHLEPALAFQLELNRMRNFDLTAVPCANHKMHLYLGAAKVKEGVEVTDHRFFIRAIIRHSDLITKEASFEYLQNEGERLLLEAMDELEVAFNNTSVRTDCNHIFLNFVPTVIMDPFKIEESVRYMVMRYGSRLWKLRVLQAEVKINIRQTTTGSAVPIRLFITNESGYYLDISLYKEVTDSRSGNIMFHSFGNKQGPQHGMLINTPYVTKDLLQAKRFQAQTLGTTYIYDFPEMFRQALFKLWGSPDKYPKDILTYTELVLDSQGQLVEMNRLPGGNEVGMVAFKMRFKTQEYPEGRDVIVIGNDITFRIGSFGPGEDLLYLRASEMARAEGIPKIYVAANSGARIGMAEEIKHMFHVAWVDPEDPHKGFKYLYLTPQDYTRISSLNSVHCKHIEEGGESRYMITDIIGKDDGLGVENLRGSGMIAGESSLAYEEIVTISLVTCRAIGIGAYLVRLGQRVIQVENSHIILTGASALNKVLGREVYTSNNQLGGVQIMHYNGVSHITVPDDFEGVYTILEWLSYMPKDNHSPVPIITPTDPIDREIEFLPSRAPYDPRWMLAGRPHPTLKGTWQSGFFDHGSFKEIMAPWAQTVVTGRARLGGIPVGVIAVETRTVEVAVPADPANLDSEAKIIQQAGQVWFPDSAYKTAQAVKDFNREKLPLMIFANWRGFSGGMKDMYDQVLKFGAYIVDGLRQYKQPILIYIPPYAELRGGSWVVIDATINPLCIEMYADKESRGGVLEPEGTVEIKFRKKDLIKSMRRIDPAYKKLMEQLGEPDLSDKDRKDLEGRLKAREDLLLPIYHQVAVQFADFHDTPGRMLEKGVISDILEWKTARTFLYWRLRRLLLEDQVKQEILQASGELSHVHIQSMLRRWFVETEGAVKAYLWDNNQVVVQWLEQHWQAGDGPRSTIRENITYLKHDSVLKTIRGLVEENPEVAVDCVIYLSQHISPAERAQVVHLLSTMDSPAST

Turning to `Cc1ccc(-c2ccc(Cl)cc2)cc1C1=C(O)C2(CCC3(CC2)OCC(C)(C)CO3)NC1=O` [Example 1-67, 3-(4′-chloro-4-methylbiphenyl-3-yl)-4-hydroxy-11,11-dimethyl-9,13-dioxa-1-azadispiro[4.2.5.2]pentadec-3-en-2-one], the half-inhibitory concentration (IC50) (as a rule, the point on the concentration scale where inhibition reaches its midpoint) in experiment [1] was determined as 668 nM; in experiment [2], 1440 nM.
In the same order, the values of `CC1COC2(CCC3(CC2)NC(=O)C(c2cc(-c4ccc(Cl)cc4)ccc2Cl)=C3O)O1` (centres unmarked) [Example 1-68, 11-(4,4′-dichlorobiphenyl-3-yl)-12-hydroxy-2-methyl-1,4-dioxa-9-azadispiro[4.2.4.2]tetradec-11-en-10-one] are 489 nM and 4860 nM.
Turning to `CC1COC2(CCC3(CC2)NC(=O)C(c2cc(-c4ccc(Cl)cc4)ccc2Cl)=C3O)OC1` (centres unmarked) [Example 1-69, 3-(4,4′-dichlorobiphenyl-3-yl)-4-hydroxy-1′-methyl-9,13-dioxa-1-azadispiro[4.2.5.2]pentadec-3-en-2-one], the IC50 in experiment [1] is 647 nM; in experiment [2] it was 11000 nM.
In the same order, the values of `Cc1ccc(-c2ccc(Cl)cc2)c(C)c1C1=C(O)C2(CCC3(CC2)OCCO3)NC1=O` [Example 1-70, 11-(4′-chloro-2,4-dimethylbiphenyl-3-yl)-12-hydroxy-1,4-dioxa-9-azadispiro[4.2.4.2]tetradec-11-en-10-one] are 675 nM and 1840 nM.
`CC1OC2(CCC3(CC2)NC(=O)C(c2cc(-c4ccc(Cl)cc4)ccc2Cl)=C3O)OC1C` (centres unmarked) [Example 1-71, 11-(4,4′-dichlorobiphenyl-3-yl)-12-hydroxy-2,3-dimethyl-1,4-dioxa-9-azadispiro[4.2.4.2]tetradec-11-en-10-one]: the 50% inhibitory concentration (IC50) in experiment [1] was 661 nM; in experiment [2] it was more than 20000 nM.
Consider `COC1CCCC2(C1)NC(=O)C(c1c(C)ccc(-c3ccc(Cl)cc3)c1C)=C2O` (centres unmarked) [Example 1-72, 3-(4′-chloro-2,4-dimethylbiphenyl-3-yl)-4-hydroxy-7-methoxy-1-azaspiro[4.5]dec-3-en-2-one], for which the values for the half-maximal inhibitory concentration (IC50) in experiment [1] and in experiment [2] were 1180 nM and 2340 nM, respectively.
For the compound `CCOC1CCCC2(C1)NC(=O)C(c1c(C)ccc(-c3ccc(Cl)cc3)c1C)=C2O` (centres unmarked) [Example 1-73, 3-(4′-chloro-2,4-dimethylbiphenyl-3-yl)-7-ethoxy-4-hydroxy-1-azaspiro[4.5]dec-3-en-2-one], the IC50 in experiment [1] is 912 nM; in experiment [2] it was 4970 nM.
On to `CCOC1CCC2(CC1)NC(=O)C(c1c(C)cc(C)c(-c3ccc(Cl)cc3)c1C)=C2O` (centres unmarked) [Example 1-75, 3-(4′-chloro-2,4,6-trimethylbiphenyl-3-yl)-8-ethoxy-4-hydroxy-1-azaspiro[4.5]dec-3-en-2-one], for which the values for the IC50 in experiment [1] and in experiment [2] were 7970 nM and 376 nM, respectively.
For `Cc1ccc(-c2ccc(Cl)cc2)cc1C1=C(O)[C@]2(CC[C@H](C)CC2)NC1=O` [Example 1-76, 3-(4′-chloro-4-methylbiphenyl-3-yl)-4-hydroxy-8-methyl-1-azaspiro[4.5]dec-3-en-2-one], the IC50 in experiment [1] was 201 nM; in experiment [2] it was 233 nM.
For `Cc1ccc(-c2ccc(Cl)cc2)cc1C1=C(O)C2(CCCCC2)NC1=O` [Example 1-77, 3-(4′-chloro-4-methylbiphenyl-3-yl)-4-hydroxy-1-azaspiro[4.5]dec-3-en-2-one], the values for the 50% inhibitory concentration (IC50) in experiment [1] and in experiment [2] were 327 nM and 860 nM, respectively.
Take `Cc1ccc(-c2ccc(Cl)cc2)cc1C1=C(O)C(C)(C(C)C)NC1=O` (centres unmarked) [Example 1-78, 3-(4′-chloro-4-methylbiphenyl-3-yl)-4-hydroxy-5-methyl-5-(propan-2-yl)-1,5-dihydro-2H-pyrrol-2-one]: the half-maximal inhibitory concentration (IC50) in experiment [1] was found to be 795 nM; in experiment [2], 1730 nM.
As for `CCOC1CCC2(CC1)NC(=O)C(c1cc(-c3cccc(Cl)c3)ccc1C)=C2O` (centres unmarked) [Example 1-79, 3-(3′-chloro-4-methylbiphenyl-3-yl)-8-ethoxy-4-hydroxy-1-azaspiro[4.5]dec-3-en-2-one], the half-inhibitory concentration (IC50) is 848 nM in experiment [1] and more than 20000 nM in experiment [2].
On the same counts, the results for `COC1CCC2(CC1)NC(=O)C(c1cc(-c3cc(F)ccc3F)ccc1C)=C2O` (centres unmarked) [Example 1-80, 3-(2′,5′-difluoro-4-methylbiphenyl-3-yl)-4-hydroxy-8-methoxy-1-azaspiro[4.5]dec-3-en-2-one] are 695 nM and more than 20000 nM.
With `Cc1ccc(-c2ccc(Cl)cc2)cc1C1=C(O)C2(CCCC(C)C2)NC1=O` (centres unmarked) [Example 1-82, 3-(4′-chloro-4-methylbiphenyl-3-yl)-4-hydroxy-7-methyl-1-azaspiro[4.5]dec-3-en-2-one], the IC50 came to 542 nM in experiment [1] and 433 nM in experiment [2].
In the same order, the values of `CCCC1CCC2(CC1)NC(=O)C(c1cc(-c3ccc(Cl)cc3)ccc1C)=C2O` (centres unmarked) [Example 1-83, 3-(4′-chloro-4-methylbiphenyl-3-yl)-4-hydroxy-8-propyl-1-azaspiro[4.5]dec-3-en-2-one] are 459 nM and 349 nM.
Turning to `Cc1ccc(-c2ccc(Cl)cc2)cc1C1=C(O)C2(CCCC2)NC1=O` [Example 1-85, 3-(4′-chloro-4-methylbiphenyl-3-yl)-4-hydroxy-1-azaspiro[4.4]non-3-en-2-one], the half-maximal inhibitory concentration (IC50) was 340 nM in experiment [1] and 4000 nM in experiment [2].
With `Cc1ccc(-c2ccc(Cl)cc2)cc1C1=C(O)C(C)(C2CC2)NC1=O` (centres unmarked) [Example 1-86, 3-(4′-chloro-4-methylbiphenyl-3-yl)-5-cyclopropyl-4-hydroxy-5-methyl-1,5-dihydro-2H-pyrrol-2-one], the IC50 in experiment [1] was 541 nM; in experiment [2], 3300 nM.
On to `CC[C@]1(OC)CC[C@@]2(CC1)NC(=O)C(c1c(C)ccc(-c3ccc(Cl)cc3)c1C)=C2O` [Example 1-88, (5r,8r)-3-(4′-chloro-2,4-dimethylbiphenyl-3-yl)-8-ethyl-4-hydroxy-8-methoxy-1-azaspiro[4.5]dec-3-en-2-one], for which the IC50 in experiment [1] is 825 nM; in experiment [2], 6900 nM.
Regarding `CC[C@]1(OC)CC[C@@]2(CC1)NC(=O)C(c1c(C)ccc(-c3ccc(F)cc3)c1C)=C2O` [Example 1-89, (5r,8r)-8-ethyl-3-(4′-fluoro-2,4-dimethylbiphenyl-3-yl)-4-hydroxy-8-methoxy-1-azaspiro[4.5]dec-3-en-2-one], the IC50 in experiment [1] is 858 nM; in experiment [2], more than 20000 nM.
With `CCC1CCC2(CC1)OC(=O)C(c1cc(-c3ccc(Cl)cc3)ccc1C)=C2O` (centres unmarked) [Example 2-1, 3-(4′-chloro-4-methylbiphenyl-3-yl)-8-ethyl-4-hydroxy-1-oxaspiro[4.5]dec-3-en-2-one], the IC50 in experiment [1] was found to be 243 nM; in experiment [2], 4150 nM.
Consider `Cc1ccc(-c2ccc(Cl)cc2)c(C)c1C1=C(O)C2(CCCC2)OC1=O` [Example 2-2, 3-(4′-chloro-2,4-dimethylbiphenyl-3-yl)-4-hydroxy-1-oxaspiro[4.4]non-3-en-2-one], for which the values for the concentration for half-maximal inhibition (IC50) in experiment [1] and in experiment [2] were 260 nM and 5280 nM, respectively.
For `Cc1ccc(-c2ccc(Cl)cc2)cc1C1=C(O)C(C)(C)OC1=O` [Example 2-3, 3-(4′-chloro-4-methylbiphenyl-3-yl)-4-hydroxy-5,5-dimethylfuran-2(5H)-one], the IC50 amounted to 581 nM in experiment [1] and 11700 nM in experiment [2].
Take `Cc1ccc(-c2ccc(Cl)cc2)c(C)c1C1=C(O)C2(CCCCC2)OC1=O` [Example 2-4, 3-(4′-chloro-2,4-dimethylbiphenyl-3-yl)-4-hydroxy-1-oxaspiro[4.5]dec-3-en-2-one]: the half-maximal inhibitory concentration (IC50) in experiment [1] amounted to 190 nM; in experiment [2], 1500 nM.
In the case of `Cc1cc(C)c(-c2ccc(Cl)cc2)c(C)c1C1=C(O)C(C)(C)OC1=O` [Example 2-5, 3-(4′-chloro-2,4,6-trimethylbiphenyl-3-yl)-4-hydroxy-5,5-dimethylfuran-2(5H)-one], the IC50 in experiment [1] amounted to 1480 nM; in experiment [2] it was 5720 nM.
Turning to `Cc1cc(C)c(-c2ccc(Cl)cc2)c(C)c1C1=C(O)C2(CCCCC2)OC1=O` [Example 2-6, 3-(4′-chloro-2,4,6-trimethylbiphenyl-3-yl)-4-hydroxy-1-oxaspiro[4.5]dec-3-en-2-one], the IC50 in experiment [1] worked out at 2150 nM; in experiment [2], 139 nM.
Consider `COC1CCC2(CC1)OC(=O)C(c1cc(-c3ccccc3Cl)ccc1C)=C2O` (centres unmarked) [Example 2-7, 3-(2′-chloro-4-methylbiphenyl-3-yl)-4-hydroxy-8-methoxy-1-oxaspiro[4.5]dec-3-en-2-one], for which the concentration for half-maximal inhibition (IC50) is 500 nM in experiment [1] and more than 20000 nM in experiment [2].
In the case of `Cc1ccc(-c2ccc(Cl)cc2)cc1C1=C(O)C2(CC2)OC1=O` [Example 2-8, 6-(4′-chloro-4-methylbiphenyl-3-yl)-7-hydroxy-4-oxaspiro[2.4]hept-6-en-5-one], the half-maximal inhibitory concentration (IC50) in experiment [1] was 420 nM; in experiment [2], more than 20000 nM.
As for `Cc1ccc(-c2ccc(Cl)cc2)cc1C1=C(O)C2(CCCOC2)OC1=O` (centres unmarked) [Example 2-9, 3-(4′-chloro-4-methylbiphenyl-3-yl)-4-hydroxy-1,7-dioxaspiro[4.5]dec-3-en-2-one], the results for the IC50 in experiment [1] and in experiment [2] were 334 nM and more than 20000 nM, respectively.
Regarding `Cc1ccc(-c2ccc(Cl)cc2)cc1C1=C(O)C2(CCCCC2)OC1=O` [Example 2-10, 3-(4′-chloro-4-methylbiphenyl-3-yl)-4-hydroxy-1-oxaspiro[4.5]dec-3-en-2-one], the values for the IC50 in experiment [1] and in experiment [2] were 161 nM and 2350 nM, respectively.
In the same order, the values of `COC1CCCC2(C1)OC(=O)C(c1cc(-c3ccc(Cl)cc3)c(C)cc1C)=C2O` (centres unmarked) [Example 2-11, 3-(4′-chloro-4,6-dimethylbiphenyl-3-yl)-4-hydroxy-7-methoxy-1-oxaspiro[4.5]dec-3-en-2-one] are 666 nM and 1550 nM.
Consider `COC1CCCC2(C1)OC(=O)C(c1c(C)cc(C)c(-c3ccc(Cl)cc3)c1C)=C2O` (centres unmarked) [Example 2-12, 3-(4′-chloro-2,4,6-trimethylbiphenyl-3-yl)-4-hydroxy-7-methoxy-1-oxaspiro[4.5]dec-3-en-2-one], for which the values for the IC50 in experiment [1] and in experiment [2] were 4170 nM and 1150 nM, respectively.
